# From patent USRE42890E1, “Furazanobenzimidazoles” (Basilea Pharmaceutica AG, priority 2003, dated 2011)
# Test system: Jurkat
# Experiment: MTS proliferation assay, Jurkat
# Assay type: cell-based, human
# Conditions: Homo sapiens, 72 h incubation, read-out: MTS proliferation assay IC 50 Jurkat
# Procedure, shortened: (§1)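 Absorbance at 492 nm after 3 h with MTS reagent gave proliferation. This followed 72 h compound exposure (final 0.3, 1, 3, 10 μM) at 37 °C and 7.5% CO2. Cells had been plated 24 h earlier in complete RPMI-1640 with 5% or 10% FCS.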
row,Compound,IC50
1,"CN(C)c1nonc1-c1nc2ccccc2n1CC(=O)c1ccc(Cl)cc1 [Example 4, Dimethyl-{4-[1-(4-chlorophenacyl)-1H-benzimidazol-2-yl]-furazan-3-yl}-amine]",10 to 100 nM
2,"COc1cc(C(=O)Cn2c(-c3nonc3N)nc3ccccc32)ccc1O [Example 74, 4-[1-(3-Methoxy-4-hydroxyphenacyl)-1H-benzimidazol-2-yl]-furazan-3-yl-amine]",100 to 1000 nM

# Test system: Jily
# Experiment: MTS proliferation assay, Jily
# Assay type: cell-based
# Conditions: 72 h incubation, read-out: MTS proliferation assay IC 50 Jily
# Procedure, shortened: (§2)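 Antiproliferative read-out by MTS (3 h, A492) after 72 h compound exposure at final 0.3–10 μM (four concentrations). Cells were plated 24 h earlier in RPMI-1640 containing 5% or 10% FCS, cultured at 37 °C with 7.5% CO2.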
row,Compound,IC50
1,"CN(C)c1nonc1-c1nc2ccccc2n1CC(=O)c1ccc(Cl)cc1 [Example 4, Dimethyl-{4-[1-(4-chlorophenacyl)-1H-benzimidazol-2-yl]-furazan-3-yl}-amine]",100 to 1000 nM
2,"COc1cc(C(=O)Cn2c(-c3nonc3N)nc3ccccc32)ccc1O [Example 74, 4-[1-(3-Methoxy-4-hydroxyphenacyl)-1H-benzimidazol-2-yl]-furazan-3-yl-amine]",100 to 1000 nM

# Test system: HT1080
# Experiment: MTS proliferation assay, HT1080
# Assay type: cell-based, human
# Conditions: Homo sapiens, HT-1080; HT1080, 72 h incubation; read-out: MTS proliferation assay IC 50 HT1080
# Procedure, shortened: as §1
row,Compound,IC50
1,"CN(C)c1nonc1-c1nc2ccccc2n1CC(=O)c1ccc(Cl)cc1 [Example 4, Dimethyl-{4-[1-(4-chlorophenacyl)-1H-benzimidazol-2-yl]-furazan-3-yl}-amine]",100 to 1000 nM
2,"COc1cc(C(=O)Cn2c(-c3nonc3N)nc3ccccc32)ccc1O [Example 74, 4-[1-(3-Methoxy-4-hydroxyphenacyl)-1H-benzimidazol-2-yl]-furazan-3-yl-amine]",100 to 1000 nM

# Test system: HeLa
# Experiment: MTS proliferation assay, HeLa
# Assay type: cell-based, human
# Conditions: Homo sapiens, 72 h incubation, read-out: MTS proliferation assay IC 50 HeLa
# Procedure, shortened: as §1
row,Compound,IC50
1,"CN(C)c1nonc1-c1nc2ccccc2n1CC(=O)c1ccc(Cl)cc1 [Example 4, Dimethyl-{4-[1-(4-chlorophenacyl)-1H-benzimidazol-2-yl]-furazan-3-yl}-amine]",100 to 1000 nM
2,"COc1cc(C(=O)Cn2c(-c3nonc3N)nc3ccccc32)ccc1O [Example 74, 4-[1-(3-Methoxy-4-hydroxyphenacyl)-1H-benzimidazol-2-yl]-furazan-3-yl-amine]",100 to 1000 nM

# Test system: MRC5
# Experiment: MTS proliferation assay, MRC5
# Assay type: cell-based
# Conditions: Homo sapiens; MRC5, 72 h incubation; read-out: MTS proliferation assay IC 50 MRC5
# Procedure, shortened: as §2
row,Compound,IC50
1,"CN(C)c1nonc1-c1nc2ccccc2n1CC(=O)c1ccc(Cl)cc1 [Example 4, Dimethyl-{4-[1-(4-chlorophenacyl)-1H-benzimidazol-2-yl]-furazan-3-yl}-amine]",100 to 1000 nM
2,"COc1cc(C(=O)Cn2c(-c3nonc3N)nc3ccccc32)ccc1O [Example 74, 4-[1-(3-Methoxy-4-hydroxyphenacyl)-1H-benzimidazol-2-yl]-furazan-3-yl-amine]",100 to 1000 nM

# Test system: adherent cells or suspension cells
# Experiment: Hoechst 33342 nuclear staining (fraction of apoptotic nuclei)
# Assay type: cell-based
# Set-up: key: 0 relating to no activity; 1 relating to weak activity comprising less than 70% of the cells; score 2 relating to strong activity comprising more than 70% of the cells
# Conditions: H460, conc 0.01 μm
row,Compound,Hoechst 33342 nuclear staining score
1,"CN(C)c1nonc1-c1nc2ccccc2n1CC(=O)c1ccc(Cl)cc1 [Example 4, Dimethyl-{4-[1-(4-chlorophenacyl)-1H-benzimidazol-2-yl]-furazan-3-yl}-amine]",0
2,"COc1cc(C(=O)Cn2c(-c3nonc3N)nc3ccccc32)ccc1O [Example 74, 4-[1-(3-Methoxy-4-hydroxyphenacyl)-1H-benzimidazol-2-yl]-furazan-3-yl-amine]",0

# Same assay, conditions: H460, conc 0.1 μm
row,Compound,Hoechst 33342 nuclear staining score
1,"CN(C)c1nonc1-c1nc2ccccc2n1CC(=O)c1ccc(Cl)cc1 [Example 4, Dimethyl-{4-[1-(4-chlorophenacyl)-1H-benzimidazol-2-yl]-furazan-3-yl}-amine]",0
2,"COc1cc(C(=O)Cn2c(-c3nonc3N)nc3ccccc32)ccc1O [Example 74, 4-[1-(3-Methoxy-4-hydroxyphenacyl)-1H-benzimidazol-2-yl]-furazan-3-yl-amine]",0

# Same assay, conditions: H460, conc 1 μm
row,Compound,Hoechst 33342 nuclear staining score
1,"CN(C)c1nonc1-c1nc2ccccc2n1CC(=O)c1ccc(Cl)cc1 [Example 4, Dimethyl-{4-[1-(4-chlorophenacyl)-1H-benzimidazol-2-yl]-furazan-3-yl}-amine]",1 (1 relating to weak activity comprising less than 70% of the cells)
2,"COc1cc(C(=O)Cn2c(-c3nonc3N)nc3ccccc32)ccc1O [Example 74, 4-[1-(3-Methoxy-4-hydroxyphenacyl)-1H-benzimidazol-2-yl]-furazan-3-yl-amine]",2 (score 2 relating to strong activity comprising more than 70% of the cells)

# Same assay, conditions: HeLa, conc 0.01 μm
row,Compound,Hoechst 33342 nuclear staining score
1,"CN(C)c1nonc1-c1nc2ccccc2n1CC(=O)c1ccc(Cl)cc1 [Example 4, Dimethyl-{4-[1-(4-chlorophenacyl)-1H-benzimidazol-2-yl]-furazan-3-yl}-amine]",0
2,"COc1cc(C(=O)Cn2c(-c3nonc3N)nc3ccccc32)ccc1O [Example 74, 4-[1-(3-Methoxy-4-hydroxyphenacyl)-1H-benzimidazol-2-yl]-furazan-3-yl-amine]",0

# Same assay, conditions: HeLa, conc 0.1 μm
row,Compound,Hoechst 33342 nuclear staining score
1,"CN(C)c1nonc1-c1nc2ccccc2n1CC(=O)c1ccc(Cl)cc1 [Example 4, Dimethyl-{4-[1-(4-chlorophenacyl)-1H-benzimidazol-2-yl]-furazan-3-yl}-amine]",0
2,"COc1cc(C(=O)Cn2c(-c3nonc3N)nc3ccccc32)ccc1O [Example 74, 4-[1-(3-Methoxy-4-hydroxyphenacyl)-1H-benzimidazol-2-yl]-furazan-3-yl-amine]",0

# Same assay, conditions: HeLa, conc 1 μm
row,Compound,Hoechst 33342 nuclear staining score
1,"CN(C)c1nonc1-c1nc2ccccc2n1CC(=O)c1ccc(Cl)cc1 [Example 4, Dimethyl-{4-[1-(4-chlorophenacyl)-1H-benzimidazol-2-yl]-furazan-3-yl}-amine]",2 (score 2 relating to strong activity comprising more than 70% of the cells)
2,"COc1cc(C(=O)Cn2c(-c3nonc3N)nc3ccccc32)ccc1O [Example 74, 4-[1-(3-Methoxy-4-hydroxyphenacyl)-1H-benzimidazol-2-yl]-furazan-3-yl-amine]",2 (score 2 relating to strong activity comprising more than 70% of the cells)

# Same assay, conditions: Jily, conc 0.01 μm
row,Compound,Hoechst 33342 nuclear staining score
1,"CN(C)c1nonc1-c1nc2ccccc2n1CC(=O)c1ccc(Cl)cc1 [Example 4, Dimethyl-{4-[1-(4-chlorophenacyl)-1H-benzimidazol-2-yl]-furazan-3-yl}-amine]",0
2,"COc1cc(C(=O)Cn2c(-c3nonc3N)nc3ccccc32)ccc1O [Example 74, 4-[1-(3-Methoxy-4-hydroxyphenacyl)-1H-benzimidazol-2-yl]-furazan-3-yl-amine]",0

# Same assay, conditions: Jily, conc 0.1 μm
row,Compound,Hoechst 33342 nuclear staining score
1,"CN(C)c1nonc1-c1nc2ccccc2n1CC(=O)c1ccc(Cl)cc1 [Example 4, Dimethyl-{4-[1-(4-chlorophenacyl)-1H-benzimidazol-2-yl]-furazan-3-yl}-amine]",0
2,"COc1cc(C(=O)Cn2c(-c3nonc3N)nc3ccccc32)ccc1O [Example 74, 4-[1-(3-Methoxy-4-hydroxyphenacyl)-1H-benzimidazol-2-yl]-furazan-3-yl-amine]",0

# Same assay, conditions: Jily, conc 1 μm
row,Compound,Hoechst 33342 nuclear staining score
1,"CN(C)c1nonc1-c1nc2ccccc2n1CC(=O)c1ccc(Cl)cc1 [Example 4, Dimethyl-{4-[1-(4-chlorophenacyl)-1H-benzimidazol-2-yl]-furazan-3-yl}-amine]",2 (score 2 relating to strong activity comprising more than 70% of the cells)
2,"COc1cc(C(=O)Cn2c(-c3nonc3N)nc3ccccc32)ccc1O [Example 74, 4-[1-(3-Methoxy-4-hydroxyphenacyl)-1H-benzimidazol-2-yl]-furazan-3-yl-amine]",2 (score 2 relating to strong activity comprising more than 70% of the cells)

# Same assay, conditions: Jurkat, conc 0.01 μm
row,Compound,Hoechst 33342 nuclear staining score
1,"CN(C)c1nonc1-c1nc2ccccc2n1CC(=O)c1ccc(Cl)cc1 [Example 4, Dimethyl-{4-[1-(4-chlorophenacyl)-1H-benzimidazol-2-yl]-furazan-3-yl}-amine]",0
2,"COc1cc(C(=O)Cn2c(-c3nonc3N)nc3ccccc32)ccc1O [Example 74, 4-[1-(3-Methoxy-4-hydroxyphenacyl)-1H-benzimidazol-2-yl]-furazan-3-yl-amine]",0

# Same assay, conditions: Jurkat, conc 0.1 μm
row,Compound,Hoechst 33342 nuclear staining score
1,"CN(C)c1nonc1-c1nc2ccccc2n1CC(=O)c1ccc(Cl)cc1 [Example 4, Dimethyl-{4-[1-(4-chlorophenacyl)-1H-benzimidazol-2-yl]-furazan-3-yl}-amine]",0
2,"COc1cc(C(=O)Cn2c(-c3nonc3N)nc3ccccc32)ccc1O [Example 74, 4-[1-(3-Methoxy-4-hydroxyphenacyl)-1H-benzimidazol-2-yl]-furazan-3-yl-amine]",0

# Same assay, conditions: Jurkat, conc 1 μm
row,Compound,Hoechst 33342 nuclear staining score
1,"CN(C)c1nonc1-c1nc2ccccc2n1CC(=O)c1ccc(Cl)cc1 [Example 4, Dimethyl-{4-[1-(4-chlorophenacyl)-1H-benzimidazol-2-yl]-furazan-3-yl}-amine]",2 (score 2 relating to strong activity comprising more than 70% of the cells)
2,"COc1cc(C(=O)Cn2c(-c3nonc3N)nc3ccccc32)ccc1O [Example 74, 4-[1-(3-Methoxy-4-hydroxyphenacyl)-1H-benzimidazol-2-yl]-furazan-3-yl-amine]",2 (score 2 relating to strong activity comprising more than 70% of the cells)

# Same assay, conditions: MRC5, conc 0.01 μm
row,Compound,Hoechst 33342 nuclear staining score
1,"CN(C)c1nonc1-c1nc2ccccc2n1CC(=O)c1ccc(Cl)cc1 [Example 4, Dimethyl-{4-[1-(4-chlorophenacyl)-1H-benzimidazol-2-yl]-furazan-3-yl}-amine]",0
2,"COc1cc(C(=O)Cn2c(-c3nonc3N)nc3ccccc32)ccc1O [Example 74, 4-[1-(3-Methoxy-4-hydroxyphenacyl)-1H-benzimidazol-2-yl]-furazan-3-yl-amine]",0

# Same assay, conditions: MRC5, conc 0.1 μm
row,Compound,Hoechst 33342 nuclear staining score
1,"CN(C)c1nonc1-c1nc2ccccc2n1CC(=O)c1ccc(Cl)cc1 [Example 4, Dimethyl-{4-[1-(4-chlorophenacyl)-1H-benzimidazol-2-yl]-furazan-3-yl}-amine]",0
2,"COc1cc(C(=O)Cn2c(-c3nonc3N)nc3ccccc32)ccc1O [Example 74, 4-[1-(3-Methoxy-4-hydroxyphenacyl)-1H-benzimidazol-2-yl]-furazan-3-yl-amine]",0

# Same assay, conditions: MRC5, conc 1 μm
row,Compound,Hoechst 33342 nuclear staining score
1,"CN(C)c1nonc1-c1nc2ccccc2n1CC(=O)c1ccc(Cl)cc1 [Example 4, Dimethyl-{4-[1-(4-chlorophenacyl)-1H-benzimidazol-2-yl]-furazan-3-yl}-amine]",2 (score 2 relating to strong activity comprising more than 70% of the cells)
2,"COc1cc(C(=O)Cn2c(-c3nonc3N)nc3ccccc32)ccc1O [Example 74, 4-[1-(3-Methoxy-4-hydroxyphenacyl)-1H-benzimidazol-2-yl]-furazan-3-yl-amine]",1 (1 relating to weak activity comprising less than 70% of the cells)

# Same assay, conditions: PBLs, conc 0.01 μm
row,Compound,Hoechst 33342 nuclear staining score
1,"CN(C)c1nonc1-c1nc2ccccc2n1CC(=O)c1ccc(Cl)cc1 [Example 4, Dimethyl-{4-[1-(4-chlorophenacyl)-1H-benzimidazol-2-yl]-furazan-3-yl}-amine]",0
2,"COc1cc(C(=O)Cn2c(-c3nonc3N)nc3ccccc32)ccc1O [Example 74, 4-[1-(3-Methoxy-4-hydroxyphenacyl)-1H-benzimidazol-2-yl]-furazan-3-yl-amine]",0

# Same assay, conditions: PBLs, conc 0.1 μm
row,Compound,Hoechst 33342 nuclear staining score
1,"CN(C)c1nonc1-c1nc2ccccc2n1CC(=O)c1ccc(Cl)cc1 [Example 4, Dimethyl-{4-[1-(4-chlorophenacyl)-1H-benzimidazol-2-yl]-furazan-3-yl}-amine]",0
2,"COc1cc(C(=O)Cn2c(-c3nonc3N)nc3ccccc32)ccc1O [Example 74, 4-[1-(3-Methoxy-4-hydroxyphenacyl)-1H-benzimidazol-2-yl]-furazan-3-yl-amine]",0

# Same assay, conditions: PBLs, conc 1 μm
row,Compound,Hoechst 33342 nuclear staining score
1,"CN(C)c1nonc1-c1nc2ccccc2n1CC(=O)c1ccc(Cl)cc1 [Example 4, Dimethyl-{4-[1-(4-chlorophenacyl)-1H-benzimidazol-2-yl]-furazan-3-yl}-amine]",0
2,"COc1cc(C(=O)Cn2c(-c3nonc3N)nc3ccccc32)ccc1O [Example 74, 4-[1-(3-Methoxy-4-hydroxyphenacyl)-1H-benzimidazol-2-yl]-furazan-3-yl-amine]",0
